Measurements reported in PMC11574108, “4-Furanylvinylquinoline derivative as a new scaffold for the design of oxidative stress initiator and glucose transporter inhibitor drugs” (Scientific Reports, 2024).

Assays:
HCT 116 p53+/+ [1] = assay: Monolayer antiproliferative MTS assay; type: cell-based, human; conditions: 2D monolayer; for IC50: MTS, 72-h incubation
From the text: (§1) The human colon carcinoma cell line HCT 116 with wild-type p53 (p53^+/+) and the human glioblastoma cell line U-251 were obtained from ATCC, while the HCT 116 with a p53 deletion (p53^−/−) was kindly provided by Prof. M. Rusin from the Maria Sklodowska-Curie Memorial Cancer Center and Institute of Oncology in Gliwice, Poland. The human chronic myelogenous leukaemia cell line K562 and the normal human cell dermal fibroblast cell line NHDF were purchased from Sigma-Aldrich and PromoCell, respectively. Both the HCT 116 and U-251 cell lines were cultured in Dulbecco’s modified Eagle’s medium (DMEM) supplemented with 10% inactivated foetal bovine serum (FBS). The DMEM for the NHDF contained 15% non-inactivated FBS. K562 cells were cultured in RPMI medium completed by 10% inactivated FBS. Additionally, the media were supplemented with antibiotics (streptomycin and penicillin – 1% v/v; Sigma-Aldrich). The cell culture was conducted in 75 cm^2 flasks (Nunc) under standard conditions (37 °C, 5% CO2 humidified atmosphere). Furthermore, the cell lines were frequently tested for mycoplasma using the qRT-PCR technique with specific Mycoplasma primers to confirm the lack of contamination.
(§2) The cells were seeded in 96-well plates (Nunc) with 5,000 or 4,000 cells per well for the cancer cells and NHDF, respectively, and incubated under standard conditions at 37 °C overnight. The culture media were then changed for freshly prepared solutions of the tested compounds in various concentrations. After 72-h incubation the antiproliferative assay was carried out as follows: the solutions of the compounds were changed in each well to 100 µL DMEM without phenol red and 20 µL of CellTiter 96 AQueous One Solution-MTS (Promega). The plates were incubated for 1 h at 37 °C, and the absorbance was then measured at 490 nm using a multi-plate reader (Synergy 4, BioTek). The experiment for each sample was repeated at least three times.
(§3) Additionally, the compounds were also tested for their cytotoxicity against normal cells – human dermal fibroblasts (NHDF).

HCT 116 p53-/- [2] = assay: Monolayer antiproliferative MTS assay; type: cell-based, human; conditions: 2D monolayer; for IC50: MTS, 72-h incubation
From the text: as §1, §2, §3

tested cancer lines = assay: Antiproliferative MTS assay, summary over the panel; type: cell-based; conditions: Homo sapiens; against most of the tested cancer lines
Method: as §2, with “times. The results are presented as the half-maximal inhibitory concentration (IC50) values, which were estimated in comparison to untreated cells (control) and calculated using GraphPad Prism v.8.0 (USA).” for “times.”
However, the antiproliferative activity of derivative 13 with furan a ring was surprising. […] For this purpose, we selected two pancreatic cancer cell lines: AsPC-1, which is characterised by a deletion of the p53 protein[20] and PANC-1, which carries an R273H mutation. […] In light of the above-mentioned facts, we also determined the cytotoxicity of the GLUT inhibitor BAY-876, which is based on a quinoline scaffold. […]

HCT 116 p53+/+ [3] = assay: Intracellular ROS level measurement (CellROX Green); type: cell-based, human; conditions: 1 µM, 24 h
Method: (§4) The cells (9,000 per well) were seeded in 96-well plates and treated with at freshly prepared 1 µM solution of 13 for 3, 6, 9, 12, and 24 h. The ROS levels were measured immediately according to the CellROX Green Reagent procedure. Additionally, the number of cells in each well during measurement was estimated using Hoechst 33,342 (Molecular Probes™). Briefly, after treatment the medium was removed and […] mixture of CellROX Green Reagent ([…]) and Hoechst 33,342 ([…]) was added to each well. The plates were incubated for 30 min at 37 °C in the dark, and the fluorescence of samples was then measured using a multiplate reader (Synergy 4, Bio Tek). Readings were performed at 485 nm excitation and 520 nm emission, as well as at 345 nm excitation and 485 nm emission for the CellROX Green Reagent and Hoechst 33,342, respectively. ROS levels were calculated as the percentage relative to the untreated cell levels (control). The experiments were carried out three times.
(§5) To determine the ROS level, the fluorescent CellROX Green Reagent was used, being measured by a spectroscopic multi-plate reader. […] The ROS level was several percent higher compared to the control after only 3 h. After 24 h the amount of ROS increased by as much as 50% relative to the untreated cells. Similar observations were made in the case of the HCT 116 p53^+/+ cells. However, the generation of ROS was less pronounced, especially at the first time points. Nevertheless, after 24 h, the level of ROS was about 40% higher. […] The highest (20% growth) occurred after 9 h and 24 h. […] The intracellular ROS levels are rapidly regulated by activated p53, which initially decreases and then subsequently increases them[42]. The weaker response toward ROS generation in these cells might have been caused by the fact that U-251 cells are resistant to exposure to oxidative stress. […] Additionally, cancer cells with a p53 mutation have a higher level of ROS than those with the wild type. Some p53 mutants can gain oncogenic features that are described as “gain-of-function” (GOF), among them being U-251 cells. […]

HCT 116 p53-/- [4] = assay: as above; type: cell-based, human; conditions: 1 µM, 24 h
Method: as §4, §5

U-251 = assay: as above; type: cell-based, human; conditions: 1 µM, after 9 h and 24 h
Method: as §4, §5

With `O=[N+]([O-])c1ccc(/C=C/c2ccnc3ccccc23)o1` [Compound 13] the IC50 (HCT 116 p53+/+ [1]) was 69 ± 9 nM, the “SI (selectivity index) HCT 116 p53+/+” value (HCT 116 p53+/+ [1]; relative to NHDF) was 9.41 and the IC50 (HCT 116 p53+/+ [1]; Homo sapiens, HCT-116, 72 h) was less than 100 nM. For the same compound, the IC50 (HCT 116 p53-/- [2]) was 94 ± 10 nM, the “SI (selectivity index) HCT 116 p53-/-” value (HCT 116 p53-/- [2]; relative to NHDF) was 6.90 and the IC50 (HCT 116 p53-/- [2]; Homo sapiens, HCT-116, 72 h) was less than 100 nM. The IC50 (tested cancer lines) was less than 100 nM, the “ROS level increase relative to untreated cells” value (HCT 116 p53+/+ [3]) was “about 40%” and the “ROS level increase relative to untreated cells” value (HCT 116 p53-/- [4]) was 50%. For the same compound, the “ROS level increase relative to untreated cells” value (U-251) was 20%.
